In ChEMBL document CHEMBL3046376, “Epimerization of epigallocatechin gallate to gallocatechin gallate and its anti-diabetic activity” (2013):
Active and inactive are the calls of the source. No cut-off for these calls is given here.

What was measured:
Rattus norvegicus [1] = experiment: Antidiabetic activity in Sprague-Dawley Rattus norvegicus (rat) STZ-induced diabetic model assessed as decrease in oral glucose-induced plasma glucose level at 5% administered QD for 6 weeks prior to glucose-challenge measured after 120 min by oral glucose tolerence test relative to control; assay type: functional, organism-based
Rattus norvegicus [2] = experiment: Antidiabetic activity in Sprague-Dawley Rattus norvegicus (rat) assessed as STZ-induced fasting plasma triglyceride level at 5% administered QD for 12 weeks (reference value: 54.4 +/- 12.3 […]); assay type: functional
Rattus norvegicus [3] = experiment: Antidiabetic activity in Sprague-Dawley Rattus norvegicus (rat) assessed as STZ-induced fasting plasma free fatty acid level at 5% administered QD for 12 weeks (reference value: 230.8 +/- 16.6 uM); assay type: functional
Rattus norvegicus [4] = experiment: Antidiabetic activity in Sprague-Dawley Rattus norvegicus (rat) assessed as STZ-induced fasting plasma insulin level at 5% administered QD for 12 weeks (reference value: 13.5 +/- 1.6 uU/ml); assay type: functional
Rattus norvegicus [5] = experiment: Antidiabetic activity in Sprague-Dawley Rattus norvegicus (rat) assessed as STZ-induced fasting plasma glucose level at 5% administered QD for 12 weeks (reference value: 318.4 +/- 11.9 mg/dl); assay type: functional
Rattus norvegicus [6] = experiment: Antidiabetic activity in Sprague-Dawley Rattus norvegicus (rat) assessed as STZ-induced body weight at 5% administered QD for 12 weeks (reference value: 268.6 +/- 9.3 g); assay type: functional
Rattus norvegicus [7] = experiment: Antidiabetic activity in Sprague-Dawley Rattus norvegicus (rat) STZ-induced diabetic model assessed as decrease in oral glucose-induced plasma insulin level at 5% administered QD for 12 weeks prior to glucose-challenge measured after 120 min by oral glucose tolerance test relative to control; assay type: functional, organism-based
Rattus norvegicus [8] = experiment: Antidiabetic activity in Sprague-Dawley Rattus norvegicus (rat) STZ-induced diabetic model assessed as decrease in oral glucose-induced plasma glucose level at 5% administered QD for 12 weeks prior to glucose-challenge measured after 120 min by oral glucose tolerance test relative to control; assay type: functional, organism-based
Rattus norvegicus [9] = experiment: Antidiabetic activity in Sprague-Dawley Rattus norvegicus (rat) STZ-induced diabetic model assessed as decrease in oral glucose-induced plasma insulin level at 5% administered QD for 6 weeks prior to glucose-challenge measured after 120 min by oral glucose tolerance test relative to control; assay type: functional, organism-based

Compound	Activity (Rattus norvegicus [1])	Activity (Rattus norvegicus [2]) [mg/dL]	Activity (Rattus norvegicus [3]) [µM]	Activity (Rattus norvegicus [4]) [uU/ml]	Activity (Rattus norvegicus [5]) [mg/dL]	Activity (Rattus norvegicus [6]) [g]	Activity (Rattus norvegicus [7])	Activity (Rattus norvegicus [8])	Activity (Rattus norvegicus [9])
O=C(O[C@@H]1Cc2c(O)cc(O)cc2O[C@@H]1c1cc(O)c(O)c(O)c1)c1cc(O)c(O)c(O)c1 [EPIGALOCATECHIN GALLATE]	Active	47.9	151.1	10.2	169.6	251.5	Active	Active	Active
O=C(O[C@@H]1Cc2c(O)cc(O)cc2O[C@H]1c1cc(O)c(O)c(O)c1)c1cc(O)c(O)c(O)c1 [GALLOCATECHIN GALLATE]	Active	38.3	133.5	8.5	154.3	247.7	Active	Active	Active
